The record followed here is patent US7005431B2, “Imidazo-triazine derivatives as ligands for gaba receptors” (Merck Sharp & Dohme Ltd., priority 2002, dated 2006).

With `CC(C)(F)c1cnn2c(-c3ccc(F)c(-c4ccc(F)cc4C#N)c3F)cnc2n1` [Example 3, 3′-[3-(1-Fluoro-1-methylethyl)imidazo[1,2-b][1,2,4]triazin-7-yl]-4,2′,6′-trifluorobiphenyl-2-carbonitrile], the melting point (usually the temperature, or range, at which the solid turns liquid) is 166 to 169 °C. `CC(C)(O)c1cnn2c(-c3ccc(F)c(-c4c(F)cccc4C#N)c3F)cnc2n1` [Example 2, 3′-[3-(1-Hydroxy-1-methylethyl)imidazo[1,2-b][1,2,4]triazin-7-yl]-6,2′,6′-trifluorobiphenyl-2-carbonitrile] had a melting point of 177 to 179 °C.
